We go through 3 molecules from patent US20130012506A1 (priority 2010, published 2013).

In test [1] the test system is M. tuberculosis clinical isolates. It is filed as cell-based, Mycobacterium tuberculosis. The conditions noted are these: multi-drug-resistant and extensive-drug-resistant isolates.
Another test relates to M. tuberculosis H37Rv. Format: cell-based, Mycobacterium tuberculosis.

For `Cc1cccn2c(=O)c(C=O)c(Nc3cccc(Cl)c3)nc12` [compound 133, 2-(3-Chlorophenylamino)-9-methyl-4-oxo-4H-pyrido[1,2-a]pyrimidine-3-carbaldehyde], the “MIC values for MDR-TB and XDR-TB isolates strains” value in test [1] is “within the micromolar range”.
Take `NNC(=O)c1ccncc1` [INH, isoniazid]: the Frequency of resistance with M. tuberculosis H37Rv is on record as 2.9×10^−6.
With `O=c1c(CO)c(Nc2cccc(Cl)c2)nc2c(F)cccn12` [compound 264, 2-(3-Chlorophenylamino)-9-fluoro-3-(hydroxymethyl)-4H-pyrido[1,2-a]pyrimidin-4-one], the spontaneous mutational rate in the test with M. tuberculosis H37Rv was 7×10^−7.
